Measurements from publication PMC3853281, “The Strawberry Pathogenesis-related 10 (PR-10) Fra a Proteins Control Flavonoid Biosynthesis by Binding to Metabolic Intermediates” (The Journal of Biological Chemistry, 2013).
pKd: −log10 of the molar value.

Key:
[1] = target: T1, Fra a 1E (Fragaria x ananassa, UniProt Q256S2); test: isothermal titration calorimetry; assay type: binding
T1 construct: gene FRAA1E.1; full-length ORF in pETM11, E. coli BL21(DE3); N-terminal His6 cut by TEV, Ala-Met-Ala left at N-terminus; monomer, 18 kDa by SEC-MALLS; residues 2-160 modelled

[2] = target: T2, Fra a 2 (Fragaria x ananassa, UniProt D0E0C6); test: isothermal titration calorimetry; assay type: binding
T2 construct: gene FRAA2; full-length ORF in pETM11, E. coli BL21(DE3); N-terminal His6 cut by TEV, Ala-Met-Ala left at N-terminus; apparent 28 kDa by SEC-MALLS
T2 sequence (D0E0C6 whole entry): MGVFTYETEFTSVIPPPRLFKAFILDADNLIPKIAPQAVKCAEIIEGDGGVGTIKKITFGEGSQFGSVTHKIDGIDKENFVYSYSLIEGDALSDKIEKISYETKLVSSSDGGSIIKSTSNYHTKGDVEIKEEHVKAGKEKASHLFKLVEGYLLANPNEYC

T1 sequence (Q256S2 whole entry, the tested form may be a part): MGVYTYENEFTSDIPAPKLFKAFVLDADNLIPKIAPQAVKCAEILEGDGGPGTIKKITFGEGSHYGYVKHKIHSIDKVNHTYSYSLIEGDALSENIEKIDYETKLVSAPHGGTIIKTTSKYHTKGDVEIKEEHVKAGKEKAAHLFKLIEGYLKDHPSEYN

| pKd [1] | pKd [2] | SMILES |
| --- | --- | --- |
| 5.28 |  | O=C(O)[C@H]1O[C@@H](Oc2c(-c3ccc(O)c(O)c3)oc3cc(O)cc(O)c3c2=O)[C@H](O)[C@@H](O)[C@@H]1O [Quercetin-3-O-glucuronide] |
|  | 4.71 | O=c1c(O)c(-c2cc(O)c(O)c(O)c2)oc2cc(O)cc(O)c12 [myricetin] |
